# Results taken from publication PMC4301629 (PLoS ONE, 2015).
# Legend:
# Type in all cases: cell-based
# [1] = molecular target: T1, α1A-AR (Homo sapiens, UniProt P35348); experiment: MAPK activation (AlphaScreen SureFire p-ERK) in α1A-AR transduced HEK-293/EBNA cells; parameters: expressed in transfected cells; host or cells: HEK-293/EBNA (baculovirus transduction, NaBu induction); details: data not shown
# T1 sequence (P35348 1-466): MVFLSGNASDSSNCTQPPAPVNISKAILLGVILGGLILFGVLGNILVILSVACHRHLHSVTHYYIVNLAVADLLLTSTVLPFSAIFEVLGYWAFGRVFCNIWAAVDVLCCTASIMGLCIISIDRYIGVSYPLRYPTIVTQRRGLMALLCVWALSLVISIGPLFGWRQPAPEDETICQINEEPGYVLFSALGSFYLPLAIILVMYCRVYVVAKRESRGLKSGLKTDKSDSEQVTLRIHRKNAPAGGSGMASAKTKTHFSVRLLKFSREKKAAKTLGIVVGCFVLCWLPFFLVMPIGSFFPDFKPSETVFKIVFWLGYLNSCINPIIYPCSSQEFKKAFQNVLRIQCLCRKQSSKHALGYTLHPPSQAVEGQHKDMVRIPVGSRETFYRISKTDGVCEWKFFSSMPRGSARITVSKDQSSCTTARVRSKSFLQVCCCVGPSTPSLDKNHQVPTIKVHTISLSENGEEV
# Protocol: (§1) Prior to experiments, cells were transduced with baculovirus strains designed for transient expression of α1A-AR or aldehyde oxidase (negative control). This was performed by incubating cells with virus (MOI 100–150) for 3 to 4 h, followed by exchange into fresh serum free growth medium supplemented with 4 mM sodium butyrate (NaBu). Cells were grown for another 14 to 18 h and then examined for agonist-evoked responses in transient Ca^2+ release, IP accumulation or pERK activation assays. The surface receptor expression density was determined by flow cytometry via immunofluorescence labeling of an N-terminal HA epitope tag on the receptor and radioligand binding in partially purified membranes.
# Graphs shown reflect either pooled or representative data (see figure legends). For concentration-response analysis, results from Ca^2+ mobilization experiments were plotted as ΔF/F0 vs. agonist concentration and fit to a sigmoidal concentration-response equation using the GraphPad Prism software package. […] For radioligand binding experiments, B max values were calculated from maximum binding using the equation B max = (SB × ([…] + [L])/[L]), where SB is the specific binding expressed as fmol per mg of membrane protein, and [L] is the ligand concentration.
# [2] = tested on: α1A-AR; experiment: Ca2+ transient response (FLIPR, fluo3) in α1A-AR transduced HEK-293/EBNA cells; details: α1A-AR HEK-293/EBNA; RS100329 10 nM, ICI 118551 10 nM, atenolol 1 μM
# Protocol: as §1
# (§2) Cells were resuspended in Hank’s balanced salt solution (Invitrogen) supplemented with 2 mM CaCl2, 10 mM HEPES pH 7.4, 2.5 mM probenecid, plus 1g/L each of glucose and bovine serum albumin (BSA), and seeded in poly-D-lysine coated 96-well black plates with transparent bottom (Costar) at a density of 50,000 cells/0.1 mL per well. Cells were then incubated for 1 h at 37°C with an additional 0.1 mL of buffer containing 4 μM fluo3-AM that was diluted from a stock solution containing 1 mM fluo3-AM dye in DMSO with 10% pluronic acid. After dye loading incubation, plates were washed twice with 100 μL of buffer and refilled with 100 μL of assay buffer. In experiments testing the effect of antagonists, 25 μL of buffer from wells of washed cells were replaced with 25 μL of vehicle or 4× antagonist solution. Pre-incubation of ligand with dye-loaded cells proceeded for 5–30 minutes immediately prior to measurements of agonist-evoked responses. Agonist-evoked Ca^2+ mobilization responses of cell populations were monitored at room temperature simultaneously in all wells of the assay plate using the plate-imaging fluorometric reader FLIPR (MDS Analytical Technologies, Sunnyvale, CA). […] The amplitudes of Ca^2+ transient responses are reported as ΔF/F0, or fold-change in Ca^2+ dye fluorescence relative to the baseline signal ΔF/F0 = (F-F0)/F0 +1 (where ΔF is maximal fluorescence intensity observed following agonist application, F0 = baseline fluorescence, or average intensity measured over the 10 s interval prior to agonist application). Image acquisition rates were varied from 1 Hz during the first 100 s of measurements to 0.5 Hz for the remaining time of the recording.
# (§3) Graphs shown reflect either pooled or representative data (see figure legends). For concentration-response analysis, results from Ca^2+ mobilization experiments were plotted as ΔF/F0 vs. agonist concentration and fit to a sigmoidal concentration-response equation using the GraphPad Prism software package. In cases where biphasic concentration-response curves were observed data were fit to a two-site concentration-response model: F(X)=R0+(Rmax−R0)[Fr1/(1+10^X-logEC50,1)+(1−Fr1)/(1+10^X-logEC50,2)] (1) , where X is the logarithm of the agonist concentration, R0 and Rmax are respectively the response minimum and maximum; Fr1 is the response fraction attributable to receptor characterized by half effective concentration of the first response phase (EC50,1), with the reminder response attributable to the second half effective concentration (EC50,2). For radioligand binding experiments, B max values were calculated from maximum binding using the equation B max = (SB × ([…] + [L])/[L]), where SB is the specific binding expressed as fmol per mg of membrane protein, and [L] is the ligand concentration.
# [3] = molecular target: T1, α1A-AR; experiment: as above; parameters: expressed in transfected cells; host or cells: HEK-293/EBNA (baculovirus transduction, NaBu induction); details: 100 nM NE, α1A-AR_HEK-293/EBNA
# Protocol: as §1, §2, §3
# [4] = tested on: HEK293/EBNA cells; experiment: IP accumulation (IP-One HTRF) in untransduced HEK-293/EBNA cells; details: HEK293/EBNA untransduced
# [5] = molecular target: T1, α1A-AR; experiment: LC-MS detection of IP1, IP2 and IP3 in α1A-AR transduced HEK-293/EBNA cells; parameters: expressed in transfected cells; host or cells: HEK-293/EBNA (baculovirus transduction, NaBu induction); details: Iso up to 10 mM
# Protocol: (§4) Virally transduced HEK-293/EBNA cells were resuspended in growth medium and seeded in poly-D-lysine coated 96-well black plates at a density of 100,000 cells/0.1 mL per well, Cells were allowed to attach for 2 hours at 37°C in a humidified atmosphere of 95% air and 5% CO2. After that, the medium was replaced with agonist solution in assay buffer (20 mM HEPES, 10 mM glucose, 1.8 mM CaCl2, 0.5 mM MgSO4, in HBSS 1X buffer, 50 mM LiCl) and cells were incubated at 37°C for 30 min. Stimulation was stopped by exchange of assay buffer with lysis buffer (100 μL 0.1N HCl/MeOH), and lysis proceeded for 30 min at 4°C. Cellular levels of inositol phosphates were determined using a Thermo LC-MS detection system following a published protocol. Chromatography was performed employing a BioBasic column AX (50 × 2.1 mm, Thermo). The mobile phase consisted of solvent A: 10 mM ammonium acetate, pH 6 in 30/70 acetonitrile/water, and solvent B: 1 mM ammonium acetate, pH 11 in 30/70 acetonitrile/water. A gradient solvent system was used starting with 0% solvent B, and analytes were eluted by increasing solvent B to 100% over 3 min. Each data point represents the average of triplicate determinations and each experiment was performed at least three times independently.
# [6] = molecular target: T1, α1A-AR; experiment: LC-MS detection of IP1, IP2 and IP3 in α1A-AR_CHO stable cells; parameters: expressed in transfected cells; details: α1A-AR CHO, Iso up to 1 mM
# Protocol: as §4, with “After” for “Virally transduced HEK-293/EBNA cells were resuspended in growth medium and seeded in poly-D-lysine coated 96-well black plates at a density of 100,000 cells/0.1 mL per well, Cells were allowed to attach for 2 hours at 37°C in a humidified atmosphere of 95% air and 5% CO2. After”
# IP1, IP2, and IP3 levels were determined via LC-MS. Plots are representative of three independent experiments with each data point being the average of triplicates.
smiles,measurement,setting,value
COc1cc2ncnc(Nc3cccc(Cl)c3)c2cc1OC [AG1478],effect of EGFR inhibition on Iso induced α1A-AR stimulation of ERK1/2,[1],not affected
CC(C)NCC(O)COc1ccc(CC(N)=O)cc1 (stereo not drawn) [atenolol],effect of antagonist on Iso-evoked Ca2+ response,[2],had no effect
"NC[C@H](O)c1ccc(O)c(O)c1 [NE, norepinephrine]",time to peak response amplitude post-agonist addition,[3],≤ 10 s
same,EC50 IP,[4],BQL
same,"cellular levels of inositol phosphates IP1, IP2 and IP3",[5],concentration-dependent increases
same,"cellular concentration of inositol phosphates IP1, IP2 and IP3",[6],concentration-dependent increases
